# Several values for one entry are separate records, joined by “and”; a condition that tells them apart may be missing. Equal values may be shown once.
# What was measured:
# SERT = assay: Baboon PET imaging: brain uptake, kinetic analysis and SERT parameters; type: in vivo
# Experimental: PET imaging protocol: PET experiments (n=20) were performed at Columbia University. Two adult male baboons (baboon A and B) were studied twice with each of the 5 radioligands (4 experiments per radioligand). All experiments took place within a 9-month period. Baboons A and B were 31 kg and 21 kg in weight at the beginning of the experimental period and 28 and 22 kg at the end, respectively. Test and retest experiments with the same radioligand were obtained on different days, with an average interval of 117±53 days.
# Experiments were performed according to protocols approved by the Columbia-Presbyterian Medical Center Institutional Animal Care and Use Committee. Fasted animals were immobilized with ketamine (10 mg/kg i.m.), and anesthetized with 1.8% isoflurane via an endotracheal tube. Vital signs were monitored every 10 minutes and the temperature was kept constant at 37° C. with heated water blankets. An i.v. perfusion line was used for hydration and injection of radioligands and nonradioactive drugs. A catheter was inserted in a femoral artery for arterial blood sampling. Head was positioned at the center of the field of view as defined by imbedded laser lines. PET imaging was performed with the ECAT EXACT HR+PET scanner (Siemens/CTI, Knoxville, Tenn.). In 3D mode, this camera provides an in-plane resolution of 4.3 mm, 4.5 mm, 5.4 mm and 8.0 mm full width at half maximum (FWHM) at a distance of 0, 1, 10 and 20 cm from the center of the field of view, respectively (Brix et al., 1997). A 15 minute transmission scan was obtained prior to radioligand injection for attenuation correction. Activity was injected i.v. over 30 seconds. […] Emission data was collected in the 3D mode for 91 minutes as 21 successive frames of increasing duration (6*10 seconds, 2*1 minutes, 4*2 minutes, 2*5 minutes, and 7*10 minutes).
# Image analysis: A Magnetic Resonance Image (MRI) of each baboon's brain was obtained for the purpose of identifying the regions of interest (ROI) (T1-weighted axial MRI sequence, acquired parallel to the anterior-posterior commissure, TR 34 msec, TE 5 msec, flip angle of 45 degrees, slice thickness is 1.5 mm, zero gap, matrix 1.5 mm×1 mm×1 mm voxels). The following regions were drawn on the MR images: cerebellum, midbrain, thalamus, striatum, hippocampus, temporal cortex, cingulate cortex and occipital cortex.
# PET emission data were attenuation-corrected using the transmission scan, and frames were reconstructed using a Shepp filter (cutoff 0.5 cycles/projection rays). Reconstructed image files were then processed using the image analysis software MEDx (Sensor Systems, Inc., Sterling, Va.). An image was created by summing all the frames, and this summed image was used to define the registration parameters with the MR image, using between-modality automated image registration (AIR) algorithm (Woods et al., 1993). Registration parameters were then applied to the individual frames for registration to the MR data set. Regional boundaries were transferred to the individual registered PET frames, and time-activity curves were measured and decay-corrected. Right and left regions were averaged. For a given animal, the same regions were used for all radioligands.
# Brain uptake: Total brain uptake was expressed as percentage of the injected dose per gram of tissue (% ID g^−1) in a region encompassing the entire brain. Regional peak time was defined as the mid-time of the frame associated with the highest activity value. To estimate the degree of wash-out from the brain captured during the scan interval (91 minutes), the decrease in activity from the peak frame to the last frame was calculated and expressed in percentage of the peak activity.
# Kinetic analysis: Regional total distribution volumes (VT, mL g^−1) were derived with kinetic analysis of the regional time-activity curves, using the arterial plasma concentrations as input function. […]
# [1] = Plasma free fraction (f1) and filter retention by ultrafiltration; type: in vitro ADME, baboon; settings: mean ± SD of four experiments
# Experimental: Plasma and ultrafiltrate activities were counted, and f1 was calculated as the ratio of ultrafiltrate activity to total plasma activity. Triplicate aliquots of the radioligand in pH 7.4 Tris buffer were also processed to determine the filter retention of free tracer.
# [2] = BP = VT ROI − VT CER, baboons, mean ± SD of four experiments
# [3] = Mean ± SD of four experiments in two baboons
# [4] = baboon A, experiments of FIGS. 5-9 (FIG. 10)
# [5] = baboons, mean ± SD of four experiments
# [6] = last scan 90 minutes, baboons, mean ± SD of four experiments
# [7] = one-tissue compartment model, baboons, mean ± SD of four experiments
smiles,measurement,setting,value
"CN([11CH3])Cc1ccccc1Sc1ccc(CF)cc1N [[^11C]AFM, [^11C]2-[2-(Dimethylaminomethyl)phenylthio]-5-fluoromethylphenylamine]",Binding potential Cingulate Cortex,SERT; [2],8.5 ± 1.0 mL/g
same,Binding potential Hippocampus,SERT; [2],20.9 ± 2.5 mL/g
same,Binding potential Midbrain,SERT; [2],65.8 ± 11.7 mL/g
same,Binding potential Occipital Cortex,SERT; [2],7.3 ± 1.3 mL/g
same,Binding potential Striatum,SERT; [2],31.3 ± 6.5 mL/g
same,Binding potential Temporal Cortex,SERT; [2],11.8 ± 0.9 mL/g
same,Binding potential Thalamus,SERT; [2],71.3 ± 16.5 mL/g
same,Equilibrium specific to non-specific partition coefficient (V3″) Cingulate Cortex,"SERT; Baboon A, single experiment",0.30 and 0.26
same,Equilibrium specific to non-specific partition coefficient (V3″) Hippocampus,"SERT; Baboon A, single experiment",0.70 and 0.75
same,Equilibrium specific to non-specific partition coefficient (V3″) Midbrain,"SERT; Baboon A, single experiment",2.13 and 2.18
same,Equilibrium specific to non-specific partition coefficient (V3″) Occipital Cortex,"SERT; Baboon A, single experiment",0.29 and 0.30
same,Equilibrium specific to non-specific partition coefficient (V3″) Striatum,"SERT; Baboon A, single experiment",0.97 and 0.92
same,Equilibrium specific to non-specific partition coefficient (V3″) Temporal Cortex,"SERT; Baboon A, single experiment",0.38 and 0.46
same,Equilibrium specific to non-specific partition coefficient (V3″) Thalamus,"SERT; Baboon A, single experiment",2.10
same,Equilibrium specific to non-specific partition coefficient (V3″) Cingulate Cortex,"SERT; Baboon B, single experiment",0.30 and 0.25
same,Equilibrium specific to non-specific partition coefficient (V3″) Hippocampus,"SERT; Baboon B, single experiment",0.61 and 0.69
same,Equilibrium specific to non-specific partition coefficient (V3″) Midbrain,"SERT; Baboon B, single experiment",1.94 and 2.33
same,Equilibrium specific to non-specific partition coefficient (V3″) Occipital Cortex,"SERT; Baboon B, single experiment",0.18 and 0.20
same,Equilibrium specific to non-specific partition coefficient (V3″) Striatum,"SERT; Baboon B, single experiment",1.06 and 1.11
same,Equilibrium specific to non-specific partition coefficient (V3″) Temporal Cortex,"SERT; Baboon B, single experiment",0.35 and 0.37
same,Equilibrium specific to non-specific partition coefficient (V3″) Thalamus,"SERT; Baboon B, single experiment",2.46 and 2.58
same,Equilibrium specific to non-specific partition coefficient (V3″) Cingulate Cortex,SERT; [3],0.28 ± 0.02
same,Equilibrium specific to non-specific partition coefficient (V3″) Hippocampus,SERT; [3],0.69 ± 0.06
same,Equilibrium specific to non-specific partition coefficient (V3″) Midbrain,SERT; [3],2.14 ± 0.16
same,Equilibrium specific to non-specific partition coefficient (V3″) Occipital Cortex,SERT; [3],0.24 ± 0.06
same,Equilibrium specific to non-specific partition coefficient (V3″) Striatum,SERT; [3],1.01 ± 0.08
same,Equilibrium specific to non-specific partition coefficient (V3″) Temporal Cortex,SERT; [3],0.39 ± 0.05
same,Equilibrium specific to non-specific partition coefficient (V3″) Thalamus,SERT; [3],2.31 ± 0.25
same,Thalamus to cerebellum ratio equal to true equilibrium ratio (V3″+1),SERT; [4],3.10
same,Time at which measured thalamus to cerebellum ratio equals the true equilibrium ratio (estimate of peak specific binding),SERT; [4],64 min
same,"K1, average of all regions and all animals",SERT; baboons,1.44 ± 0.40 mL/g/min
same,"VT, average of all regions and all animals",SERT; baboons,57.5 ± 27.5 mL/g
same,"k2, average of all regions and all animals",SERT; baboons,0.030 ± 0.015 min⁻¹
same,f2 (free fraction in the nonspecific distribution volume),"SERT; baboons, calculated from f1 and cerebellar VT",0.32±0.04%
same,V3″ expressed in percentage of [^11C]McN 5652 V3″,"SERT; baboons, combining all regions",193±35%
same,Mean regional peak uptake time,"SERT; baboons, mean of all regions",38 ± 19 min
same,Mean regional wash-out (% decrease between peak time and last scan),"SERT; baboons, mean of all regions",32±26%
same,Cingulate Cortex to cerebellum activity ratio at 90 minutes,SERT; [5],1.30 ± 0.09
same,Hippocampus to cerebellum activity ratio at 90 minutes,SERT; [5],1.84 ± 0.40
same,Midbrain to cerebellum activity ratio at 90 minutes,SERT; [5],3.48 ± 1.09
same,Occipital Cortex to cerebellum activity ratio at 90 minutes,SERT; [5],1.26 ± 0.18
same,Regional uptake peak time Cerebellum,SERT; [5],23 ± 11 min
same,Regional uptake peak time Cingulate Cortex,SERT; [5],28 ± 11 min
same,Regional uptake peak time Hippocampus,SERT; [5],39 ± 16 min
same,Regional uptake peak time Midbrain,SERT; [5],56 ± 24 min
same,Regional uptake peak time Occipital Cortex,SERT; [5],30 ± 14 min
same,Regional uptake peak time Striatum,SERT; [5],44 ± 21 min
same,Regional uptake peak time Temporal Cortex,SERT; [5],34 ± 14 min
same,Regional uptake peak time Thalamus,SERT; [5],54 ± 22 min
same,Striatum to cerebellum activity ratio at 90 minutes,SERT; [5],2.10 ± 0.24
same,Temporal Cortex to cerebellum activity ratio at 90 minutes,SERT; [5],1.44 ± 0.20
same,Thalamus to cerebellum activity ratio at 90 minutes,SERT; [5],3.51 ± 0.72
same,Total brain uptake at 45 min,"SERT; baboons, region encompassing the entire brain",0.016±0.002 % ID g^−1
same,In vivo affinity relative to [^11C]DASB (times higher),"SERT; from Bmax/KD ratios, assuming same number of binding sites",3.3 times
same,"Regional activity wash-out: % decrease from peak to last scan, Cerebellum",SERT; [6],48 ± 28%
same,"Regional activity wash-out: % decrease from peak to last scan, Cingulate Cortex",SERT; [6],43 ± 27%
same,"Regional activity wash-out: % decrease from peak to last scan, Hippocampus",SERT; [6],26 ± 27%
same,"Regional activity wash-out: % decrease from peak to last scan, Midbrain",SERT; [6],16 ± 22%
same,"Regional activity wash-out: % decrease from peak to last scan, Occipital Cortex",SERT; [6],42 ± 27%
same,"Regional activity wash-out: % decrease from peak to last scan, Striatum",SERT; [6],29 ± 31%
same,"Regional activity wash-out: % decrease from peak to last scan, Temporal Cortex",SERT; [6],36 ± 29%
same,"Regional activity wash-out: % decrease from peak to last scan, Thalamus",SERT; [6],18 ± 25%
same,K1 Cerebellum,SERT; [7],1.52 ± 0.49 mL/g/min
same,K1 Cingulate Cortex,SERT; [7],1.48 ± 0.40 mL/g/min
same,K1 Hippocampus,SERT; [7],1.15 ± 0.35 mL/g/min
same,K1 Midbrain,SERT; [7],1.57 ± 0.41 mL/g/min
same,K1 Occipital Cortex,SERT; [7],1.35 ± 0.37 mL/g/min
same,K1 Striatum,SERT; [7],1.48 ± 0.48 mL/g/min
same,K1 Temporal Cortex,SERT; [7],1.25 ± 0.34 mL/g/min
same,K1 Thalamus,SERT; [7],1.68 ± 0.42 mL/g/min
same,K2 Cerebellum,SERT; [7],0.051 ± 0.021 min⁻¹
same,K2 Cingulate Cortex,SERT; [7],0.039 ± 0.012 min⁻¹
same,K2 Hippocampus,SERT; [7],0.023 ± 0.008 min⁻¹
same,K2 Midbrain,SERT; [7],0.017 ± 0.006 min⁻¹
same,K2 Occipital Cortex,SERT; [7],0.036 ± 0.011 min⁻¹
same,K2 Striatum,SERT; [7],0.025 ± 0.010 min⁻¹
same,K2 Temporal Cortex,SERT; [7],0.030 ± 0.010 min⁻¹
same,K2 Thalamus,SERT; [7],0.017 ± 0.006 min⁻¹
same,"VT Cerebellum (VT CER, nonspecific distribution volume)",SERT; [7],30.6 ± 3.9 mL/g
same,VT Cingulate Cortex,SERT; [7],39.0 ± 4.7 mL/g
same,VT Hippocampus,SERT; [7],51.5 ± 6.1 mL/g
same,VT Midbrain,SERT; [7],96.3 ± 15.3 mL/g
same,VT Occipital Cortex,SERT; [7],37.9 ± 3.6 mL/g
same,VT Striatum,SERT; [7],61.9 ± 10.4 mL/g
same,VT Temporal Cortex,SERT; [7],42.4 ± 4.5 mL/g
same,VT Thalamus,SERT; [7],101.9 ± 20.4 mL/g
same,Filter retention,"[1]; activity remaining on filter, radioligand dissolved in saline",19.3 ± 4.1%
same,f1 (plasma free fraction),"[1]; baboon plasma, ultrafiltration",9.6 ± 0.5%
